Source: patent US12240892B2, “Pharmaceutical composition comprising expression or activity inhibitor of c-src for preventing or treating synucleinopathy” (AJOU UNIVERSITY INDUSTRY-ACADEMIC COOPERATION FOUNDATION, priority 2018, dated 2025)

What was measured:
[1] = system: SHSY5Y overexpressing A53T eGFP; assay: Amount of aggregated α-syn in differentiated cells overexpressing A53T eGFP, confocal microscopy; assay type: cell-based; conditions: for amount of α-syn aggregated in the cells: Src KD SHSY5Y overexpressing A53T eGFP, 50 μM retinoid acid, differentiated 5 days
SHSY5Y cell line = assay: α-syn intercellular migration, two-chamber co-culture, immunostaining and confocal microscopy; assay type: cell-based; conditions: 0.1 μM saracatinib, 10 μM SKI; co-culture 12 hours with SHSY5Y overexpressing α-syn; vs PBS control
Procedure: The SHSY5Y cell overexpressing alpha-synuclein was seeded at 4×10^4 in a 12-well plate in an insert well using a two-chamber system, and the SHSY5Y cell line was seeded at 4×10^4 on the cover glass. The next day, the insert well was transferred to a 12-well cover glass, and during co-culture for 12 hours, the SHSY5Y cell line was treated with 0.1 μM saracatinib and 10 μM SKI (c-src kinase inhibitor I), which are c-src inhibitors, and then alpha-synuclein in SHSY5Y cell line on the cover glass was immunostained (α-syn: red, nucleus: blue) and observed using a confocal microscope to confirm that alpha-synuclein was migrated from SHSY5Y overexpressing alpha-synuclein to SHSY5Y not overexpressing alpha-synuclein.
Next, c-src knockdown SHSY5Y cell lines (KD #1 and KD #2), constructed using shRNAs of […], and dopaminergic neuronal cell line SHSY5Y overexpressing α-syn were co-cultured for 12 hours using a two-chamber system. The co-culture will be described in brief. SHSY5Y cells were seeded at a concentration of 4×10^4 cells/well on a 12-well cover glass. […]

| Compound | amount of aggregated α-syn ([1]; 10 μM SKI, 0.5 μM saracatinib, differentiated with 50 μM RA) | migration of α-syn (SHSY5Y cell line) | amount of α-syn aggregated in the cells [1] |
| --- | --- | --- | --- |
| COc1cc2ncnc(Nc3ccc(Oc4ccccc4)cc3)c2cc1OC [SKI] | decreased | reduced | – |
| SEQ ID NO: 1: shRNA against c-src: CCGGGCUCGGCUCAUUGAAGACAAUCUCGAGAUUGUCUUCAAUGAGCCGAGCUUUUUG | – | – | decreased |
| SEQ ID NO: 2: shRNA against c-src: CCGGGACAGACCUGUCCUUCAAGAACUCGAGUUCUUGAAGGACAGGUCUGUCUUUUUG (listed as RNA, chemistry not fully specified) | – | – | decreased |
